Test in all cases: inhibition of tumour cell growth, NCI panel, 48 h
The test system of experiment [1] is 786-0.
Experiment [2] concerns KM12.
Experiment [3] deals with UACC-62.
The test system of experiment [4] is DMS-114.
In experiment [5] the test system is UO-31.
The test system of experiment [6] is CAKI-1.
The subject of experiment [7] is SF-295.
Experiment [8] relates to UACC-257.
For experiment [9], the system named is HL-60.
Experiment [10] concerns NCI-H460.
Experiment [11] concerns SF-539.
In experiment [12] the test system is Malme-3M.
For experiment [13], the system named is HCC 2998.
Experiment [14] has as its system SK-OV-3.
In experiment [15] the test system is K562.
The subject of experiment [16] is SK-MEL-2.
Experiment [17] has as its system PC-3.
Experiment [18] has as its system M14.
Experiment [19] concerns OVCAR-4.
Experiment [20] relates to LXFL 529.

Structures are written as SMILES.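 Five compound concentrations were applied to cells in 96-well plates for 48 hours; endpoints were derived by simple linear interpolation of the resulting dose-response curve. Abbreviation: GI50, concentration required for 50% inhibition of growth.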 The source made the active and inactive calls. Cut-off read from the data, not from the text of the source: active = GI50 up to about 1.1 µM and inactive = higher.

The text below walks through data of ChEMBL document CHEMBL1201862, “PubChem BioAssay data set” (2004).

As to `Cc1ccc(/C=C/C(=O)c2sc(-n3nc(-c4ccccc4)cc3-c3ccccc3)nc2C)cc1`, the GI50 in experiment [1] is > 100 µM (inactive); in [2], > 100 µM (inactive); in [3] it was > 100 µM (inactive); in experiment [4], 10.6 µM (inactive); in experiment [5] it was > 100 µM (inactive); in experiment [6], 12.4 µM (inactive). In addition, the GI50 in experiment [7] was > 100 µM (inactive); in experiment [8], > 100 µM (inactive); in experiment [9] it was 36.4 µM (inactive); in experiment [10], > 100 µM (inactive); in [11], > 100 µM (inactive); in [12] it was > 100 µM (inactive). Moreover, the GI50 was 60.8 µM (inactive) in experiment [13], > 100 µM (inactive) in experiment [14], 77.8 µM (inactive) in experiment [15] and > 100 µM (inactive) in experiment [16].

As to `Nc1ccn(C2OC(COC(=O)C34CC5CC(CC(C5)C3)C4)C(O)C2O)c(=O)n1` (configuration not stated), the GI50 in experiment [17] is > 100 µM (inactive); in experiment [1] it was > 100 µM (inactive); in experiment [2], > 100 µM (inactive); in [3], > 100 µM (inactive); in experiment [4], 12.4 µM (inactive); in [5], > 40.5 µM (inactive). The GI50 in [6] is > 100 µM (inactive); in experiment [18], 0.817 µM (active); in experiment [7] it was > 100 µM (inactive); in experiment [8], > 100 µM (inactive); in [9] it was 0.622 µM (active); in experiment [19] it was > 100 µM (inactive). The GI50 in experiment [10] is 0.392 µM (active); in experiment [11], > 100 µM (inactive); in [12], > 100 µM (inactive); in experiment [13], > 69.3 µM (inactive); in [14], > 79.8 µM (inactive); in experiment [15], 43.4 µM (inactive). The GI50 in experiment [16] is > 100 µM (inactive).

Consider `Cc1ccc(NC(=O)c2cc3cc(/N=N/c4ccc(Br)cc4)ccc3oc2=O)cc1`, for which the GI50 was > 100 µM (inactive) in [1]; 47.6 µM (inactive) in experiment [2]; 37 µM (inactive) in experiment [4]; 30.5 µM (inactive) in experiment [6]; > 10 µM (inactive) in experiment [18]; > 100 µM (inactive) in experiment [7]. Further, the GI50 in [8] is > 100 µM (inactive); in experiment [9], 23.4 µM (inactive); in experiment [19] it was > 100 µM (inactive); in experiment [10], > 100 µM (inactive); in experiment [12] it was > 100 µM (inactive); in experiment [13] it was > 100 µM (inactive). The GI50 in experiment [14] and in experiment [16] was > 100 µM (inactive) throughout.

As for `N#Cc1ccccc1NC(=O)C(=O)C(C(=O)c1ccccc1-c1ccccc1)C1OC(=O)c2ccccc21` (configuration not stated), the GI50 is 14.8 µM (inactive) in experiment [1]; 18.1 µM (inactive) in experiment [2]; 16.7 µM (inactive) in [3]; 15.5 µM (inactive) in [4]; > 10 µM (inactive) in experiment [5]; 15.4 µM (inactive) in [18]. The GI50 in experiment [7] was 17.6 µM (inactive); in [8], 15.2 µM (inactive); in experiment [9] it was 14 µM (inactive); in experiment [10] it was 18.2 µM (inactive); in experiment [11], 10.7 µM (inactive); in [12] it was 10.4 µM (inactive). Further, the GI50 in experiment [13] is 15.5 µM (inactive); in experiment [14], 41.2 µM (inactive); in experiment [15], 21.7 µM (inactive); in experiment [16], 16 µM (inactive).

Consider `Cc1ccc(NC(=O)/C(=N\Nc2ccc([N+](=O)[O-])cc2[N+](=O)[O-])C2C(=O)NC(=O)NC2=O)cc1`, for which the GI50 in experiment [1] was > 100 µM (inactive); in experiment [2] it was 53.2 µM (inactive); in experiment [3] it was 7.13 µM (inactive); in experiment [4] it was 49.2 µM (inactive); in experiment [5] it was 15.5 µM (inactive); in [6], > 100 µM (inactive). Also, the GI50 was 89.7 µM (inactive) in experiment [18]; 46.1 µM (inactive) in experiment [7]; > 100 µM (inactive) in [8]; 35.7 µM (inactive) in experiment [9]; 65.5 µM (inactive) in experiment [19]; 71 µM (inactive) in experiment [10]. Also, the GI50 in experiment [11] is 17.9 µM (inactive); in [20], 13.3 µM (inactive); in [12] it was > 100 µM (inactive); in experiment [14], > 100 µM (inactive); in [15], 26.2 µM (inactive).

For the molecule `C[n+]1c2ccccc2c(/C=N\NS(=O)(=O)c2ccc(Cl)cc2)c2ccccc21`, the GI50 in experiment [1] is 51.9 µM (inactive); in experiment [2] it was 44.2 µM (inactive); in experiment [3], 37.8 µM (inactive); in experiment [4], 28.3 µM (inactive); in experiment [5], 27.3 µM (inactive); in experiment [6] it was 29.7 µM (inactive). In addition, the GI50 in [18] is 56.4 µM (inactive); in experiment [7] it was 59.4 µM (inactive); in [8], > 100 µM (inactive); in [9], 30.1 µM (inactive); in [19] it was > 100 µM (inactive); in experiment [10], 32.4 µM (inactive). The GI50 in [11] is 87.5 µM (inactive); in experiment [12], > 100 µM (inactive); in experiment [13], > 100 µM (inactive); in experiment [14] it was > 100 µM (inactive); in [15], 17.7 µM (inactive); in [16] it was 46.7 µM (inactive).

In the case of `c1cc2n(n1)CCN2`, the GI50 in experiment [17] was 1160 µM (inactive); in experiment [1], 1120 µM (inactive); in [2], 1810 µM (inactive); in [3], 374 µM (inactive); in experiment [4], 1560 µM (inactive); in [5], 1320 µM (inactive). The GI50 in experiment [6] was 740 µM (inactive); in experiment [18] it was 486 µM (inactive); in [7], 348 µM (inactive); in experiment [8] it was 5980 µM (inactive); in experiment [9], 238 µM (inactive); in experiment [19], 5550 µM (inactive). Also, the GI50 in experiment [10] was 820 µM (inactive); in experiment [11], 646 µM (inactive); in experiment [12] it was 3000 µM (inactive); in experiment [13], 1690 µM (inactive); in experiment [14] it was 3040 µM (inactive); in [15], 2000 µM (inactive). Also, in experiment [16], the GI50 was 6460 µM (inactive).

`CC(=O)Nc1ccc(-c2nnc(SCC(=O)Nc3cccc(C)c3)o2)cc1`: the GI50 is 12.8 µM (inactive) in [1]; 10.8 µM (inactive) in experiment [2]; 8.26 µM (inactive) in experiment [3]; 2.34 µM (inactive) in experiment [4]; 13.2 µM (inactive) in experiment [5]; 16.7 µM (inactive) in [6]. For the same molecule, the GI50 is 13 µM (inactive) in experiment [18]; 10.8 µM (inactive) in experiment [7]; 12.3 µM (inactive) in [8]; 19.5 µM (inactive) in experiment [9]; 16 µM (inactive) in experiment [19]; 15 µM (inactive) in experiment [10]. In addition, the GI50 was 14.5 µM (inactive) in experiment [11]; 10.9 µM (inactive) in experiment [20]; 14.1 µM (inactive) in experiment [12]; 25.8 µM (inactive) in [14]; 10.8 µM (inactive) in experiment [15]; 12.5 µM (inactive) in experiment [16].
